Data from patent US5348743A, “Anti-pathogenically effective compositions comprising lytic peptides and hydrolytic enzymes” (priority 1993, dated 1994).
Like-named read-outs stand apart in the source and are kept apart here.

Experiments:
chitinase [1] = format: biochemical, Phaseolus vulg. L. cv. saxa
Experimental: (§1) Seeds of Phaseolus vulg. L. cv. saxa were grown in vermiculite under a 16 hr light: 8 hr dark regime at 20° C. Twelve day old bean plants were incubated in air-tight plastic chambers with a volume of 0.2 m^3. Control plants were incubated in identical chambers in ethylene-free air. After 48 hours, the primary leaves were harvested and frozen at -20° C.
(§2) 0.6597 kg frozen leaf tissue was homogenized in 0.1M sodium citrate buffer at pH 5.0 (2 ml×g^-1 fresh weight) with a Turmix homogenizer at top speed. The homogenate was centrifuged (25 Min., 11000 g) and 100 ml of the supernatant were used as a crude enzyme preparation. The proteins in the remaining crude extract were precipitated by adding ammonium sulfate to 95% saturation. After centrifugation (30 min., 11000 g) the sediment was redissolved in 100 mM Tris/HCl pH 8.0 and dialyzed against 5 mM Tris/HCl pH 8.0.
Chitinase activity was measured as described by Molano et al. (1977).

beta-1,3-glucanase [2] = format: biochemical, Phaseolus vulg. L. cv. saxa
Experimental: as §1, §2
Beta-1,3-glucanase activity was measured as described by Dygert et al., Analyt. Biochem., 13:367-374 (1965).

chitinase [3] = details: Burri (1989), average of five ethylene treatments; cited from earlier work
beta-1,3-glucanase [4] = details: Burri (1989), average of five ethylene treatments; cited from earlier work
S. nodorum = assay: Inhibitory effect of lytic peptides and hydrolytic enzymes against S. nodorum (microtiter plates, liquid pea medium, absorbance at 595 nm); format: cell-based, Septoria nodorum
Experimental: Microtiter plates were selected to investigate the inhibitory effect of lytic peptides and hydrolytic enzymes against S. nodorum. Test substances were added to 90 ul liquid pea medium which had been previously inoculated with 2.0×10^4 spores/ml medium of the test pathogen to give a final volume of 100 ul. The blank value of the test substances were determined by adding them to uninoculated liquid pea medium. The plates were evaluated after incubation in a wet chamber at 23° C. on a shaker in the dark for 48 hours.
a. Hydrolytic enzymes were purified from ethylene-treated bean leaves by the procedure described in Example 1.
b. Lytic peptides: The following antimicrobial peptides were tested at 20 ppm, 60 ppm and 200 ppm concentrations:
d. Combinations of test substances: Table 3 illustrates the composition of test solutions which were tested in duplicate/triplicate samples.
e. Evaluation: The growth of the pathogen was recorded by measuring the absorbance of the medium at 595 nm. The average of duplicate/triplicate samples was calculated and the corresponding enzyme blank was subtracted to give the net absorption of the growing mycelium. The inhibitory effect of the test substances used was determined by calculating the growth of the pathogen as a percentage of water control.

Compound: C=C [ethylene]
- Specific chitinase activity (chitinase [1]): 45.95
- absolute chitinase activity (chitinase [1]): 54.71
- induction of chitinase in bean leaves (chitinase [1]): strong induction
- Specific beta-1,3-glucanase activity (beta-1,3-glucanase [2]): 28.72
- absolute beta-1,3-glucanase activity (beta-1,3-glucanase [2]): 34.21
- induction of beta-1,3-glucanase in bean leaves (beta-1,3-glucanase [2]): strong induction
- absolute chitinase activity (chitinase [3]): 88.86±6.65 nkatal/ml extract
- absolute beta-1,3-glucanase activity (beta-1,3-glucanase [4]): 76.00±6.77 nkatal/ml extract

Compound: GIGKFLHSAK KFGKAFVGI MNS [SYNTHETIC PEPTIDE NO. 3]
- FUNGAL GROWTH IN PERCENTAGE OF CONTROL (S. nodorum; test solution 5: lytic peptide 20 ppm alone, 48 hours, 23° C.): 80.35 percentage of control
- FUNGAL GROWTH IN PERCENTAGE OF CONTROL (S. nodorum; test solution 6: lytic peptide 60 ppm alone, 48 hours, 23° C.): 73.51 percentage of control
- FUNGAL GROWTH IN PERCENTAGE OF CONTROL (S. nodorum; test solution 7: lytic peptide 200 ppm alone, 48 hours, 23° C.): 65.96 percentage of control
- FUNGAL GROWTH IN PERCENTAGE OF CONTROL (S. nodorum; test solution 12: lytic peptide 20 ppm + chitinase 1/10 c): 68.42 percentage of control
- FUNGAL GROWTH IN PERCENTAGE OF CONTROL (S. nodorum; test solution 13: lytic peptide 60 ppm + chitinase 1/10 c): 63.51 percentage of control
- FUNGAL GROWTH IN PERCENTAGE OF CONTROL (S. nodorum; test solution 14: lytic peptide 200 ppm + chitinase 1/10 c): 61.75 percentage of control
- FUNGAL GROWTH IN PERCENTAGE OF CONTROL (S. nodorum; test solution 15: lytic peptide 20 ppm + chitinase 1/100 c): 77.89 percentage of control
- FUNGAL GROWTH IN PERCENTAGE OF CONTROL (S. nodorum; test solution 16: lytic peptide 60 ppm + chitinase 1/100 c): 71.58 percentage of control
- FUNGAL GROWTH IN PERCENTAGE OF CONTROL (S. nodorum; test solution 17: lytic peptide 200 ppm + chitinase 1/100 c): 64.21 percentage of control
- FUNGAL GROWTH IN PERCENTAGE OF CONTROL (S. nodorum; test solution 18: lytic peptide 20 ppm + beta-1,3-glucanase 1/10 c): 46.67 percentage of control
- FUNGAL GROWTH IN PERCENTAGE OF CONTROL (S. nodorum; test solution 19: lytic peptide 60 ppm + beta-1,3-glucanase 1/10 c): 30.88 percentage of control
- FUNGAL GROWTH IN PERCENTAGE OF CONTROL (S. nodorum; test solution 20: lytic peptide 200 ppm + beta-1,3-glucanase 1/10 c): 27.89 percentage of control
- FUNGAL GROWTH IN PERCENTAGE OF CONTROL (S. nodorum; test solution 21: lytic peptide 20 ppm + beta-1,3-glucanase 1/100 c): 65.26 percentage of control
- FUNGAL GROWTH IN PERCENTAGE OF CONTROL (S. nodorum; test solution 22: lytic peptide 60 ppm + beta-1,3-glucanase 1/100 c): 63.51 percentage of control
- FUNGAL GROWTH IN PERCENTAGE OF CONTROL (S. nodorum; test solution 23: lytic peptide 200 ppm + beta-1,3-glucanase 1/100 c): 53.68 percentage of control
- FUNGAL GROWTH IN PERCENTAGE OF CONTROL (S. nodorum; test solution 24: lytic peptide 20 ppm + chitinase 1/10 c + beta-1,3-glucanase 1/10 c): 9.47 percentage of control
- FUNGAL GROWTH IN PERCENTAGE OF CONTROL (S. nodorum; test solution 25: lytic peptide 60 ppm + chitinase 1/10 c + beta-1,3-glucanase 1/10 c): 8.42 percentage of control
- FUNGAL GROWTH IN PERCENTAGE OF CONTROL (S. nodorum; test solution 26: lytic peptide 200 ppm + chitinase 1/10 c + beta-1,3-glucanase 1/10 c): 3.86 percentage of control
- FUNGAL GROWTH IN PERCENTAGE OF CONTROL (S. nodorum; test solution 27: lytic peptide 20 ppm + chitinase 1/100 c + beta-1,3-glucanase 1/100 c): 40.7 percentage of control
- FUNGAL GROWTH IN PERCENTAGE OF CONTROL (S. nodorum; test solution 28: lytic peptide 60 ppm + chitinase 1/100 c + beta-1,3-glucanase 1/100 c): 36.49 percentage of control
- FUNGAL GROWTH IN PERCENTAGE OF CONTROL (S. nodorum; test solution 29: lytic peptide 200 ppm + chitinase 1/100 c + beta-1,3-glucanase 1/100 c): 31.23 percentage of control
